Test results from patent publication US20140309310A1 (GACHON UNIVERSITY OF INDUSTRY-ACADEMIC COOPERATION …, priority 2011, published 2014).

Columns and labels:
[1] = system: ovariectomy-induced osteoporosis (ovariectomized BALB/c mice); assay: Whole-body bone mineral density and bone mass by dual energy X-ray absorptiometry (DEXA) in ovariectomized mice; assay type: in vivo, mouse; conditions: DDS oral 2 mg/kg from 1 week before to 12 weeks after ovariectomy, whole body DEXA at 12 weeks, P<0.05 vs OVX
Source text: 10-week-old BALB/c mice were subjected to ovariectomy (OVX) to make experimental animal models with osteopenia induced by OVX. […] All the animal studies were approved by the Animal Research Ethical Committee of Seoul National University.

[2] = system: osteopenia induced by aging (female C57BL/6J mice); assay: Whole-body bone mineral density and bone mass by DEXA in mice with osteoporosis induced by aging; assay type: in vivo, mouse; conditions: DDS 2 mg/kg over 12 weeks
Protocol: The mice were acclimated for 1 week, housed at a temperature of 21±1° C. and a humidity of 60%, and allowed access to food ad libitum.

Caenorhabditis elegans = conditions: reported; cited from earlier work
[3] = system: ovariectomy-induced osteoporosis (ovariectomized BALB/c mice); assay: High-resolution micro-CT imaging of femoral trabecular bone, trabecular thickness and separation in ovariectomized mice; assay type: in vivo, mouse; conditions: OVX mice, DDS oral 2 mg/kg
Protocol: 10-week-old BALB/c mice were subjected to ovariectomy (OVX) to make experimental animal models with osteopenia induced by OVX. […] All the animal studies were approved by the Animal Research Ethical Committee of Seoul National University. The trabecular bone of femoral region adjacent to the mouse shin was imaged by radiography using high-resolution micro-CT. The right limb of the mice was excised and stored in 10% formalin for one day. Then, the bone tissue was stored in 70% alcohol at 4° C. until use in analysis. The bone tissue was imaged by computer tomography using Skyscan 1076 Desktop X-ray Microtomograph (Skyscan, Belgium) at a tube voltage of 100 kV and an exposure current of 200 μA. For the acquired images, bone mineral density (BMD) and bone volume (BV) were measured using Skyscan CTan ver. 1.5.0 and Shortcut to ANT image analysis program (Skyscan, Belgium), and the acquired images were reconstituted into three-dimensional images. In addition, trabecular thickness (Tb. Th) and trabecular separation (Tb. Sp), which are the indices of morphological microstructures on the micro CT images, were measured, and the results of the measurement are shown in FIG. 3.

Nc1ccc(S(=O)(=O)c2ccc(N)cc2)cc1 [DDS, diaminodiphenylsulfone]
increase in bone mass compared to the positive control group (OVX) [1]: 9.13%
increase in bone mineral density compared to the positive control group (OVX) [1]: 4.09%
change in bone mass, 8-month-old mice ([2]; female C57BL/6J): no significant change
change in bone mineral density, 8-month-old mice ([2]; female C57BL/6J): no significant change
increase in bone mass, 30-month-old mice ([2]; female mice): 9.6%
increase in bone mineral density, 30-month-old mice ([2]; female mice): 5.11%
increase of life span of Caenorhabditis elegans (Caenorhabditis elegans): 20-30%
microstructure of the bone section (micro-CT three-dimensional image) ([3]; femoral trabecular bone): as dense as that of the negative control group
trabecular separation (Tb. Sp) ([3]; micro-CT of femoral region): levels similar to those of the negative control group
trabecular thickness (Tb. Th) ([3]; micro-CT of femoral region): levels similar to those of the negative control group
